From ChEMBL document CHEMBL1201862, “PubChem BioAssay data set” (2004)
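1) Cells in 96-well plates. 2) Compound, 48 h, 5 concentrations. 3) Linear interpolation between surrounding doses. 4) Unreached endpoint = highest concentration. GI50 marks 50% less growth.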 Activity calls are given as the source filed them. No stated cut-off is given here; in the data, active = GI50 up to about 1.1 µM and inactive = higher.

How the values were obtained:
Experiment in all cases: NCI-60 cell line screen, 48 h
SF-295 = tested on: SF-295
SK-MEL-5 = tested on: SK-MEL-5
EKVX = tested on: EKVX
RXF 393 = tested on: RXF 393
SF-268 = tested on: SF-268
SK-MEL-28 = tested on: SK-MEL-28
SK-OV-3 = tested on: SK-OV-3
SF-539 = tested on: SF-539
MOLT-4 = tested on: MOLT-4
SNB-75 = tested on: SNB-75
HT-29 = tested on: HT-29
NCI-H23 = tested on: NCI-H23
SN12C = tested on: SN12C
HCC 2998 = tested on: HCC 2998
CAKI-1 = tested on: CAKI-1
HCT-15 = tested on: HCT-15
SNB-19 = tested on: SNB-19
RPMI-8226 = tested on: RPMI-8226
ACHN = tested on: ACHN
TK-10 = tested on: TK-10

| SMILES | GI50 (SF-295) | GI50 (SK-MEL-5) | GI50 (EKVX) | GI50 (RXF 393) | GI50 (SF-268) | GI50 (SK-MEL-28) | GI50 (SK-OV-3) | GI50 (SF-539) | GI50 (MOLT-4) | GI50 (SNB-75) | GI50 (HT-29) | GI50 (NCI-H23) | GI50 (SN12C) | GI50 (HCC 2998) | GI50 (CAKI-1) | GI50 (HCT-15) [µM] | GI50 (SNB-19) | GI50 (RPMI-8226) | GI50 (ACHN) | GI50 (TK-10) |
| --- | --- | --- | --- | --- | --- | --- | --- | --- | --- | --- | --- | --- | --- | --- | --- | --- | --- | --- | --- | --- |
| Cc1ccc(N(O)C(C)(C)C)cc1 | > 100 µM (inactive) | > 100 µM (inactive) | > 100 µM (inactive) | > 100 µM (inactive) | > 100 µM (inactive) | > 100 µM (inactive) | > 100 µM (inactive) | > 100 µM (inactive) | > 100 µM (inactive) | > 100 µM (inactive) | > 100 µM (inactive) | > 100 µM (inactive) | > 100 µM (inactive) | > 100 µM (inactive) | > 100 µM (inactive) | > 100 | > 100 µM (inactive) | > 100 µM (inactive) |  |  |
| COc1nc(-c2cn(S(=O)(=O)c3ccc(C)cc3)c3ccc(Br)cc23)cc(C(F)(F)F)c1C#N | 97.3 µM (inactive) | 77.6 µM (inactive) | 40 µM (inactive) | 19.8 µM (inactive) | 53.2 µM (inactive) | 94.4 µM (inactive) | 21 µM (inactive) | 34.9 µM (inactive) | 31.3 µM (inactive) | 23.3 µM (inactive) | > 100 µM (inactive) | 18.8 µM (inactive) | 45.1 µM (inactive) | 85.9 µM (inactive) | 45.2 µM (inactive) | 41.4 | 25.9 µM (inactive) | 14.9 µM (inactive) | 29.1 µM (inactive) |  |
| O=[N+]([O-])c1cc2ncc(-c3ccccc3)c(O)c2cc1/C(Cl)=C/c1ccccc1 | 6.65 µM (inactive) | 5.04 µM (inactive) | 5.57 µM (inactive) | 8.17 µM (inactive) | 3.62 µM (inactive) | 17.2 µM (inactive) | 27.1 µM (inactive) | 11.6 µM (inactive) | 6.85 µM (inactive) | 9.1 µM (inactive) | 13.4 µM (inactive) | 7.67 µM (inactive) | 14.2 µM (inactive) | 8.26 µM (inactive) | 19.1 µM (inactive) | 11.1 | 16.3 µM (inactive) | 2.39 µM (inactive) |  |  |
| CC(=O)/C=C/c1c[nH]c(=O)[nH]c1=O | 304 µM (inactive) | 271 µM (inactive) | 239 µM (inactive) | 126 µM (inactive) | 168 µM (inactive) | 190 µM (inactive) | 166 µM (inactive) | 214 µM (inactive) | 179 µM (inactive) | 217 µM (inactive) | 420 µM (inactive) | 257 µM (inactive) | 142 µM (inactive) | 236 µM (inactive) | 74.3 µM (inactive) | 210 | 295 µM (inactive) | 129 µM (inactive) |  |  |
| Nc1nc(=O)n(CC(O)CO)s1 (configuration not stated) | > 100 µM (inactive) | > 100 µM (inactive) | > 100 µM (inactive) | > 100 µM (inactive) | > 100 µM (inactive) | < 0.01 µM (active) |  | > 100 µM (inactive) | > 100 µM (inactive) | > 100 µM (inactive) | > 100 µM (inactive) | > 100 µM (inactive) | > 100 µM (inactive) | > 100 µM (inactive) |  | > 100 | > 100 µM (inactive) | > 100 µM (inactive) | > 100 µM (inactive) | > 100 µM (inactive) |
| CC(C)(C)[Si](OC1CC(n2cnc3c(N)ncnc32)OC1CO)(c1ccccc1)c1ccccc1 (configuration not stated) | 15 µM (inactive) |  | 18.4 µM (inactive) | 13.4 µM (inactive) | 16.1 µM (inactive) | 21.5 µM (inactive) | 14.9 µM (inactive) | 20.2 µM (inactive) | 20.7 µM (inactive) |  | 16.1 µM (inactive) | 13.9 µM (inactive) | 20.9 µM (inactive) | 67.5 µM (inactive) |  | > 10 | 20.2 µM (inactive) | 14.1 µM (inactive) | 13.6 µM (inactive) | 24.2 µM (inactive) |
| O=C(NCCCCCCNC(=O)n1cc(F)c(=O)[nH]c1=O)NCCCOCCOCCCNC(=O)C(O)C(O)C(O)C(O)CO (configuration not stated) | > 2.5 µM (inactive) | > 2.5 µM (inactive) | > 2.5 µM (inactive) | > 2.5 µM (inactive) | > 2.5 µM (inactive) | > 2.5 µM (inactive) | > 2.5 µM (inactive) | > 1.84 µM (inactive) | > 2.5 µM (inactive) | > 2.5 µM (inactive) | > 2.32 µM (inactive) | > 2.5 µM (inactive) | > 2.5 µM (inactive) | 0.152 µM (active) |  | 2.43 | > 2.5 µM (inactive) | > 2.5 µM (inactive) |  |  |
| S=C(N/N=C(/c1ccccc1)c1ccccn1)Nc1cccc(Cl)c1 | 0.422 µM (active) | 0.185 µM (active) | 0.0513 µM (active) | 1.08 µM (active) | 0.462 µM (active) | 1.01 µM (active) | 0.215 µM (active) | 1.48 µM (inactive) | < 0.0297 µM (active) | 0.0569 µM (active) |  | 1.04 µM (active) | 0.394 µM (active) | 0.748 µM (active) | 0.701 µM (active) |  | 3.01 µM (inactive) | < 0.0385 µM (active) | 0.225 µM (active) | 0.714 µM (active) |
| Nc1ncnc2c1sc1nc3ccccc3n12 | > 56.2 µM (inactive) | 52 µM (inactive) | 35.1 µM (inactive) | 12.8 µM (inactive) | 19.4 µM (inactive) | > 100 µM (inactive) | 12.5 µM (inactive) | 20.4 µM (inactive) | 11.8 µM (inactive) |  | > 70.8 µM (inactive) | > 100 µM (inactive) | > 100 µM (inactive) | > 44.8 µM (inactive) | 33.7 µM (inactive) | > 100 | > 100 µM (inactive) | > 91.4 µM (inactive) | 57.7 µM (inactive) | > 100 µM (inactive) |
| Cc1[nH]c(=O)nc(S)c1C(=O)NC1C2CCCCC2NC2CCCCC21 (configuration not stated) | 17.2 µM (inactive) | 18.9 µM (inactive) |  | 13.5 µM (inactive) |  | 11.2 µM (inactive) | > 10 µM (inactive) |  | 14.3 µM (inactive) | 16.7 µM (inactive) | 21.4 µM (inactive) | 14.4 µM (inactive) | 19.8 µM (inactive) | 25 µM (inactive) | 17.2 µM (inactive) | 10.9 | 15.6 µM (inactive) | 26.4 µM (inactive) |  | 16.5 µM (inactive) |
| O=C1CC(=O)N(c2ccccc2)N1/C(=C/c1ccccc1)c1ccccc1 | 17.3 µM (inactive) | 14.5 µM (inactive) | 37.6 µM (inactive) | 16.7 µM (inactive) | 16.2 µM (inactive) | 12.3 µM (inactive) | 25.6 µM (inactive) |  | 1.58 µM (inactive) | 22 µM (inactive) | 20 µM (inactive) | 23.2 µM (inactive) | 20.5 µM (inactive) | 20.1 µM (inactive) | 17.3 µM (inactive) |  | 19.6 µM (inactive) | 10.2 µM (inactive) | 25.8 µM (inactive) | 21.3 µM (inactive) |
| CCOC(=O)[C@H]1Nc2c(cccc2[N+](=O)[O-])[C@H]2OCC[C@@H]12 | > 100 µM (inactive) | > 100 µM (inactive) | > 100 µM (inactive) | > 100 µM (inactive) | > 100 µM (inactive) | > 100 µM (inactive) |  | > 100 µM (inactive) | > 100 µM (inactive) | > 100 µM (inactive) | > 100 µM (inactive) | > 100 µM (inactive) | > 100 µM (inactive) | > 100 µM (inactive) | > 100 µM (inactive) | > 100 | > 100 µM (inactive) | > 100 µM (inactive) | > 100 µM (inactive) | > 100 µM (inactive) |
| N=C(N)NS(=O)(=O)c1ccc(Nc2c3ccccc3nc3c(C(=O)N4CCN(CCO)CC4)ccc(Cl)c23)cc1 | > 100 µM (inactive) | > 100 µM (inactive) |  | > 100 µM (inactive) | > 100 µM (inactive) | > 100 µM (inactive) | > 100 µM (inactive) | > 100 µM (inactive) | > 100 µM (inactive) | > 100 µM (inactive) | > 100 µM (inactive) | > 100 µM (inactive) | > 100 µM (inactive) | > 100 µM (inactive) | > 100 µM (inactive) | > 100 | > 100 µM (inactive) | > 100 µM (inactive) | > 100 µM (inactive) | > 100 µM (inactive) |
| C[Si](C)(C)CC(N)=O | > 100 µM (inactive) | > 100 µM (inactive) | > 100 µM (inactive) | > 100 µM (inactive) |  | > 100 µM (inactive) | > 100 µM (inactive) |  | > 100 µM (inactive) | > 100 µM (inactive) | > 100 µM (inactive) |  | > 100 µM (inactive) | > 100 µM (inactive) | > 100 µM (inactive) | > 100 | > 100 µM (inactive) | > 100 µM (inactive) | > 100 µM (inactive) | > 100 µM (inactive) |
| CC(C)(Br)C(Br)CCC(C)(Br)C(Br)CO (configuration not stated) | > 10 µM (inactive) | > 10 µM (inactive) | > 10 µM (inactive) | > 10 µM (inactive) | > 10 µM (inactive) | > 10 µM (inactive) | > 10 µM (inactive) | > 10 µM (inactive) | > 10 µM (inactive) | > 10 µM (inactive) | > 10 µM (inactive) | > 10 µM (inactive) | > 10 µM (inactive) | > 10 µM (inactive) | > 10 µM (inactive) | > 10 | > 10 µM (inactive) | > 10 µM (inactive) | > 10 µM (inactive) |  |
| CCN(CC)c1ccc2cc(C(=O)Nc3ccc4[nH]c(C(=O)N5C[C@@H](CCl)c6c5cc(OC(=O)Nc5ccccc5)c5[nH]cc(C)c65)cc4c3)oc2c1 [CARZELESIN] |  | 306 µM (inactive) | 0.000266 µM (active) | 0.000201 µM (active) | 0.00021 µM (active) | 0.000479 µM (active) | 0.00042 µM (active) | 318 µM (inactive) | 0.000343 µM (active) | 284 µM (inactive) | > 1000 µM (inactive) | 0.000311 µM (active) | 552 µM (inactive) | 434 µM (inactive) | 5.28e-05 µM (active) | 0.000676 | 294 µM (inactive) | 0.000308 µM (active) |  |  |
